Data reported in patent publication US6818414B1, “Method of pretreatment of sample for quantitating cholesterol and method for quantitating cholesterol in specific lipoproteins by using the same” (Daiichi Pure Chemicals Co., Ltd., priority 1999, dated 2004).

Tested on: cholesterol oxidase
Assay: Relative absorbance of free cholesterol reaction in serum with cholesterol oxidase and fulfenamic acid (Reagents J to L)
Assay type: biochemical
Details: 600 nm, 37° C. 5 minutes, pH 6.0/7.0/8.0, 5.0 U/mL cholesterol oxidase and 0 mM fulfenamic acid = 100, average of four serum samples
Description: Reagents J to L shown below in Table 6 were prepared, which commonly contained 1.25 U/mL peroxidase (product of Toyobo Co., Ltd.), 0.01% 4-aminoantipyrine, 0.02% disulfo butyl-m-toluidine and 50 mM NaCl and were different from each other in the kind and pH of buffer and the concentrations of cholesterol oxidase (product of Toyobo Co., Ltd.) and fulfenamic acid (product of Sigma Chemical Co.).
Reagents J to L (300 μL) were separately added to aliquots (3 μL) of each serum sample. After the resultant mixtures were incubated at 37° C. for 5 minutes, their absorbances were measured at600 nm. The above procedures were conducted using the Hitachi 7150 automated analyzer.
With respect to each of Reagents J to L, relative absorbances were calculated for the individual concentrations of cholesterol oxidase and fulfenamic acid by assuming that the absorbance obtained with a reagent containing 5.0 U/mL cholesterol oxidase and 0 mM fulfenamic acid was 100.
Results, which had been obtained by averaging the relative absorbances of the four samples, are presented in FIG. 3. in which “COD” stands for cholesterol oxidase.

**Q.** Which relative absorbance does the source give for `O=C(O)c1ccccc1Nc1cccc(C(F)(F)F)c1` [fulfenamic acid, flufenamic acid] here?
**A.** The relative absorbance was “increased depending upon the concentration of fulfenamic acid irrespective of the pH”.
